The source of these data is patent US20260158152A1, “SPLICING MODULATOR ANTIBODY-DRUG CONJUGATES AND METHODS OF USE” (EISAI R&D MANAGEMENT CO., LTD., priority 2018, published 2026).

Like-named read-outs stand apart in the source and are kept apart here. Where only a bound is given, the exact number is not on record here.

Series [1] relates to FBXW5 (mature mRNA transcript). As to the kind of experiment: In vivo PD RT-qPCR in NCI-N87 tumors, FBXW5. Also noted: species or system CB17-SCID mice. The conditions noted are these: 10 mg/kg IV single dose, NCI-N87 xenograft, versus vehicle.
Description: (§1) Single cell suspension of 5 million cells per 0.1 mL (50% ATCC-modification-RPMI-1640-medium, Cat. No. A10491-01 (Thermo-Fisher Scientific); and 50% Corning Matrigel, Cat No. 356254 (VWR Scientific)) was injected subcutaneously on the right lateral flank with a syringe with a 25 Ga needle. Mice were randomized on day 0 at a mean tumor volume of 180-183 mm^3, n=8 per group for efficacy and n=4 per group for pharmacodynamics (PD). On day 1, test articles were administered (10 mg/kg) at a volume of 5 mL/kg intravenously every 7 days for 2 cycles for efficacy; a single course of treatment was used for PD assessment. Animals in the PD cohorts were euthanized at 24, 48, 72, and/or 96 hours post-dosing of a single dose, depending on the test article.
(§2) RNA was purified from tumor samples using MagMAX-96 for Microarrays kit and MagMAX Express-96 Deep Well Magnetic Particle Processor (ThermoFisher Scientific). Tumor samples (size 50-100 mg) were collected in RNAlater buffer and kept at −80° C. until RNA isolation. Tissue homogenization was performed by adding 2-3 ceramic beads and 1 mL of Tri-reagent into a tube containing tumors, followed by disruption on an Omni Bead Ruptor 24 instrument (Omni International). RNA isolation was done according to the manufacturer's instructions.
(§3) RNA lysates were isolated and reverse transcribed using TaqMan Fast Virus 1-Step Master Mixt (ThermoFisher Scientific) according to the manufacturer's instructions.
(§4) Quantitative PCR from cDNA was performed using TaqMan Gene Expression Master Mix (ThermoFisher Scientific) with transcript probes targeting FBXW5 or TAOK1 junctions duplexed with RPLP0 RNA VIC-PL (ThermoFisher Scientific) and quantified using the ΔΔCt method.
(§5) RT-qPCR of FBXW5 (mature mRNA transcript) and TAOK1 (neojunction transcript) were monitored. Test article or vehicle was given intravenously (IV) at 10 mg/kg. […] Tumors were isolated for RNA extraction and RT-qPCR. *p<0.05 versus vehicle using one-way ANOVA (FIG. 24A and FIG. 24B) or two-way ANOVA (FIG. 24C and FIG. 24D).
Series [2] concerns TAOK1 (neojunction transcript). The experiment in a line: In vivo PD RT-qPCR in NCI-N87 tumors, TAOK1. Also noted: species or system CB17-SCID mice. The note with it: 10 mg/kg IV single dose, NCI-N87 xenograft, versus vehicle.
Description: as §1, §2, §3, §4, §5
The test system of series [3] is NCIH1650.1. The experiment in a line: Payload cellular potency, CTGlo-ATS, 72 h, NCIH1650.1. Type of series: cell-based. The note with it: corresponding free payload, cell line #1, 72 h.
For series [4], the system named is Caco-2 cells. As to the kind of experiment: Caco-2 permeability of ADC payload. The class given is in vitro ADME. The note with it: for Perm. Mean Caco-2 B-A Perm: corresponding free payload.
Description: (§6) Integrity of cell monolayer was confirmed by TEER (transepithelial electrical resistance) and Lucifer yellow. Payloads were spiked in duplicate at 10 µM, separately, on both sides of the cell monolayer. Permeability rates from the apical to basolateral (A−B) direction and the basolateral to apical (B−A) direction were determined by sampling aliquots from both chambers immediately after treatment (t=0) and following incubation for 2 hours. Samples were protein precipitated with organic solvent containing internal standard and analyzed by LC-MS/MS (SCIEX; API 5500). The area ratio responses of payload/internal standard over time in both directions were used to generate permeability (cm/sec) values.
Series [5] relates to THP1.1. The experiment in a line: Payload cell potency and lethality CellTiter-Glo, THP1. Type of series: cell-based. The conditions noted are these: for GI50: Homo sapiens. As for the experimental part: Each concentration was tested in triplicate. […] Values represent time zero (TO).
The test system of series [6] is N87 cells. The experiment in a line: Cell viability CellTiter-Glo, N87. The conditions noted are these: unconjugated payload of the ADC. The class given is cell-based, human.
Description: (§7) HCC1954 (American Type Culture Collection (ATCC)) breast ductal carcinoma cells were plated at 2000 cells/well in flat bottom 96-well tissue culture plates (Corning) in a total volume of 90 μL tissue culture medium supplemented with 10% fetal bovine serum (ThermoFisher Scientific). Cells were treated with a 3-fold serial dilution of compound from 200 nM to 0.03 nM. Each concentration was tested in triplicate. At the time of treatment, a plate of untreated cells was evaluated using CellTiter-Glo®2.0 Luminescent Cell Viability Assay according to the manufacturer's recommendations (Promega; #G9241). CellTiter-Glo® 2.0 reagent was added to the medium, incubated, and assayed on an EnVision Multilabel Reader (PerkinElmer). Values represent time zero (TO). […] Percentage growth inhibition was calculated as: [(T144−T0)/(C−T0)]×100 for concentrations for which T144>/=T0 or [(T144−T0)/T0]×100 for concentrations for which T144<T0. The dose response curve plots were generated using Prism 7 (Graphpad) and fit using nonlinear regression analysis and the log (inhibitor) versus response—variable slope (four parameters).
HCC1954 (ATCC), 2000 cells/well), N87 (ATCC, 4000 cells/well), SKBR3 (ATCC, 3000 cells/well), and MCF7 (ATCC, 1500 cells/well) cell lines were used. Cell viability analysis was performed as described in section 2.3.
Series [7] has as its system PC3 cells. The experiment in a line: Cell viability, EPHA2-expressing PC3. The class given is cell-based. The conditions noted are these: free payload of the ADC.
Description: as §7
Anti-CD138 ADCs were tested in the CD138-expressing MOLP8 multiple myeloma cell line. Similarly, anti-EPHA2 ADCs were tested in the EPHA2-expressing PC3 prostate cancer cell line.
Series [8] can be described thus: Caco-2 permeability of ADC payload. Type of series: in vitro ADME. The note with it: human, payload; for efflux ratio at 2 h, 10 µM: Caco-2, B−A/A−B.
Description: as §6
Where [9] appears, read: THP-1, read-out: Payload cell potency: CT..-ATS GMean GI50 (nM) THP1.1.

Regarding `CC[C@H](O)[C@@H](C)C1OC1C[C@@](C)(O)/C=C/C=C(\C)[C@H]1OC(=O)C[C@H](O)CC[C@@](C)(OC)[C@@H](OC(=O)N2CCN(CCN3C(=O)C=CC3=O)CC2)/C=C/[C@@H]1C` (stereo in doubt) [ADL14-D1, (2S,3S,6S,7R,10R,E)-10-hydroxy-2-((R,2E,4E)-6-hydroxy-7-((2S,3S)-3-((2R,3S)-3-hydroxypentan-2-yl)oxiran-2-yl)-6-methylhepta-2,4-dien-2-yl)-7-methoxy-3,7-dimethyl-12-oxooxacyclododec-4-en-6-yl 4-(2-(2,5-dioxo-2,5-dihydro-1H-pyrrol-1-yl)ethyl)piperazine-1-carboxylate], the “change in FBXW5 mature mRNA transcript in tumors” value in series [1] is on record as “did not exhibit statistically significant changes”. Moreover, the “change in TAOK1 neojunction transcript in tumors” value in series [2] is listed as “did not exhibit statistically significant changes”.

For `CC[C@H](O)[C@@H](C)[C@H]1O[C@@H]1C[C@@](C)(O)/C=C/C=C(\C)[C@H]1OC(=O)C[C@H](O)CC[C@@](C)(OC)[C@@H](OC(=O)N2CCNCC2)/C=C/[C@@H]1C` (stereo in doubt) [D1], the “CTGlo-ATS GMean LD50 72 h NCIH1650.1” value in series [3] is more than 10 µM. In addition, the “Perm. Mean Caco-2 B-A Perm” value in series [4] is 2.05 10e−6 cm/s. In series [5] (payload of the ADC), the “CTGlo-ATS Mean MinResponse % THP1.1” value is reported as −100.815%. In addition, the “Payload Rmin (%)” value in series [6] is given as −40.041%. In addition, the “Payload Rmin” value in series [7] is recorded as −71.987%.

Consider `CC[C@H](O)[C@@H](C)C1OC1C[C@@](C)(O)/C=C/C=C(\C)[C@H]1OC(=O)C[C@H](O)CC[C@@](C)(OC(C)=O)[C@@H](OC(=O)N2CCNCC2)/C=C/[C@@H]1C` (stereo in doubt) [D4, (2S,3S,6S,7R,10R,E)-7-acetoxy-10-hydroxy-2-((R,2E,4E)-6-hydroxy-7-((2S,3S)-3-((2R,3S)-3-hydroxypentan-2-yl)oxiran-2-yl)-6-methylhepta-2,4-dien-2-yl)-3,7-dimethyl-12-oxooxacyclododec-4-en-6-yl piperazine-1-carboxylate], for which the “Perm. Mean Caco-2 B-A Perm” value in series [4] was 1.79 10e−6 cm/s. The concentration for 50% growth inhibition (GI50) in series [5] (setting [9]) amounted to 10.9 nM. For the same compound, the “Payload Rmin (%)” value in series [6] is recorded as −81.775%. Further, the “Payload Rmin” value in series [7] is reported as −55.97%.

For the compound `CC[C@H](O)[C@@H](C)[C@H]1O[C@@H]1C[C@@](C)(O)/C=C/C=C(\C)[C@H]1OC(=O)C[C@H](O)CC[C@@](C)(OC(C)=O)[C@@H](OC(=O)N2CCN(C(=O)OCc3ccc(NC(=O)[C@H](CCCNC(N)=O)NC(=O)[C@@H](NC(=O)CCCCCN4C(=O)C=CC4=O)C(C)C)cc3)CC2)/C=C/[C@@H]1C` [ADL1-D4], the “change in FBXW5 mature mRNA transcript in tumors” value in series [1] was “significant depletion of FBXW5”. In addition, in series [2], the “change in TAOK1 neojunction transcript in tumors” value is listed as “significant increases in TAOK1”.

For `CC(=O)N1CCC(n2nnc3c(F)cc(/C=C(\C)[C@H]4OC(=O)C[C@H](O)CC[C@H](C)[C@@H](OC(=O)N5CC[N+](C)(Cc6ccc(NC(=O)[C@H](C)NC(=O)[C@@H](NC(=O)CCCCCN7C(=O)C=CC7=O)C(C)C)cc6)CC5)/C=C/[C@@H]4C)cc32)CC1` [ADL5-D15, 4-((((2S,3S,6R,7S,10R,E)-2-((E)-1-(1-(1-acetylpiperidin-4-yl)-4-fluoro-1H-benzo[d][1,2,3]triazol-6-yl)prop-1-en-2-yl)-10-hydroxy-3,7-dimethyl-12-oxooxacyclododec-4-en-6-yl)oxy)carbonyl)-1-(4-((S)-2-((S)-2-(6-(2,5-dioxo-2,5-dihydro-1H-pyrrol-1-yl)hexanamido)-3-methylbutanamido)propanamido)benzyl)-1-methylpiperazin-1-ium], the “change in FBXW5 mature mRNA transcript in tumors” value in series [1] was “significant depletion of FBXW5”. For the same compound, the “change in TAOK1 neojunction transcript in tumors” value in series [2] is “showed an increase in TAOK1, but did not reach statistical significance”.

In the case of `CC[C@H](O)[C@@H](C)[C@H]1O[C@@H]1C[C@@](C)(O)/C=C/C=C(\C)[C@H]1OC(=O)C[C@H](O)CC[C@@](C)(OC)[C@@H](OC(=O)N2CCN(C)CC2)/C=C/[C@@H]1C` [D2, (2S,3S,6S,7R,10R,E)-10-hydroxy-2-((R,2E,4E)-6-hydroxy-7-((2R,3R)-3-((2R,3S)-3-hydroxypentan-2-yl)oxiran-2-yl)-6-methylhepta-2,4-dien-2-yl)-7-methoxy-3,7-dimethyl-12-oxooxacyclododec-4-en-6-yl 4-methylpiperazine-1-carboxylate], in series [4] (see Table 14), the “payload permeability as compared to D1” value is reported as “three-fold increase”. The GI50 in series [5] (setting [9]) came to 2.02 nM. Besides, the “CTGlo-ATS Mean MinResponse % THP1.1” value in series [5] (payload of the ADC) is listed as −100.218%. The “payload cell potency as compared to D1” value in series [5] (see Table 14) is “three-fold increase”. Also, the “Payload Rmin (%)” value in series [6] is −72.706%. Besides, the “Payload Rmin” value in series [7] is recorded as −68.803%.

For the compound `CC[C@H](O)[C@@H](C)[C@H]1O[C@@H]1C[C@@](C)(O)/C=C/C=C(\C)[C@H]1OC(=O)C[C@H](O)CC[C@@](C)(O)[C@@H](OC(=O)N2CCN(C3CCCCCC3)CC2)/C=C/[C@@H]1C` [D11, E7107], the “CTGlo-ATS Mean MinResponse % THP1.1” value in series [5] (payload of the ADC) is listed as −100.481%.

Consider `CC[C@H](O)[C@@H](C)[C@H]1O[C@@H]1C[C@@](C)(O)/C=C/C=C(\C)[C@H]1OC(=O)C[C@H](O)CC[C@@](C)(O)[C@@H](OC(=O)N2CCNCC2)/C=C/[C@@H]1C` [D12], for which, in series [3], the “CTGlo-ATS GMean LD50 72 h NCIH1650.1” value was more than 100 µM. Moreover, the “Perm. Mean Caco-2 B-A Perm” value in series [4] is 0.23 10e−6 cm/s.

`CC(=O)N1CCC(n2nnc3c(F)cc(/C=C(\C)[C@H]4OC(=O)C[C@H](O)CC[C@H](C)[C@@H](OC(=O)N5CCN(C)CC5)/C=C/[C@@H]4C)cc32)CC1` [D15]: the Papp B→A at 2 h, 10 µM in series [8] (Caco-2, basolateral to apical, 2 hours, read-out: Permeability Mean Caco-2 B-A Perm (10e−6 cm/s)) turned out to be 28.9 ×10⁻⁶ cm/s. Besides, in series [8], the efflux ratio at 2 h, 10 µM was determined as 7.84. Also, the “Payload Rmin” value in series [7] is listed as −79.835%.

For `C/C(=C\c1cc(F)cc(N2CCOCC2)c1)[C@H]1OC(=O)C[C@H](O)CC[C@H](C)[C@@H](OC(=O)N2CCN(C)CC2)/C=C/[C@@H]1C` [D17], in series [5] (THP-1, payload of the ADC, read-out: Payload cell potency: CT..-ATS GMean GI50 (nM) THP1.1), the concentration for 50% growth inhibition (GI50) worked out at 2.83 nM.

As for `CC[C@H](O)[C@@H](C)[C@H]1O[C@@H]1C[C@H](C)/C=C/C=C(\C)[C@H]1OC(=O)C[C@H](O)CC[C@@](C)(OC)[C@@H](OC(=O)N2CCNCC2)/C=C/[C@@H]1C` [D18, (2S,3S,6S,7R,10R,E)-10-hydroxy-2-((S,2E,4E)-7-((2R,3R)-3-((2R,3S)-3-hydroxypentan-2-yl)oxiran-2-yl)-6-methylhepta-2,4-dien-2-yl)-7-methoxy-3,7-dimethyl-12-oxooxacyclododec-4-en-6-yl piperazine-1-carboxylate], the efflux ratio at 2 h, 10 µM in series [8] is 23. In addition, the “Payload Rmin (%)” value in series [6] is reported as −92.127%.

Regarding `CC[C@H](O)[C@@H](C)[C@H]1O[C@@H]1C[C@@](C)(O)/C=C/C=C(\C)[C@H]1OC(=O)C[C@H](O)CC[C@@](C)(OC)[C@@H](OC(=O)N(C)CCNC)/C=C/[C@@H]1C` [D20, (2S,3S,6S,7R,10R,E)-10-hydroxy-2-((R,2E,4E)-6-hydroxy-7-((2R,3R)-3-((2R,3S)-3-hydroxypentan-2-yl)oxiran-2-yl)-6-methylhepta-2,4-dien-2-yl)-7-methoxy-3,7-dimethyl-12-oxooxacyclododec-4-en-6-yl methyl(2-(methylamino)ethyl)carbamate], in series [8], the efflux ratio at 2 h, 10 µM worked out at 2.38.

With `CC[C@H](O)[C@@H](C)[C@H]1O[C@@H]1C[C@@](C)(O)/C=C/C=C(\C)[C@H]1OC(=O)C[C@H](O)CC[C@@](C)(OC)[C@@H](OC(=O)N2CCNC(CCC(=O)O)C2)/C=C/[C@@H]1C` (stereo partly drawn) [D22, N-ethyl-N-isopropylpropan-3-(4-((((2S,3S,6S,7R,10R,E)-10-hydroxy-2-((R,2E,4E)-6-hydroxy-7-((2R,3R)-3-((2R,3S)-3-hydroxypentan-2-yl)oxiran-2-yl)-6-methylhepta-2,4-dien-2-yl)-7-methoxy-3,7-dimethyl-12-oxooxacyclododec-4-en-6-yl)oxy)carbonyl)piperazin-2-yl)propanoic acid], the efflux ratio at 2 h, 10 µM in series [8] amounted to 1.14. The “CTGlo-ATS Mean MinResponse % THP1.1” value in series [5] (payload of the ADC) is recorded as −78.119%.

As for `CC[C@H](O)[C@@H](C)[C@H]1O[C@@H]1C[C@@](C)(O)/C=C/C=C(\C)[C@H]1OC(=O)C[C@H](O)CC[C@@](C)(OC)[C@@H](OC(=O)N2CCN(CCCC(=O)O)CC2)/C=C/[C@@H]1C` [D25], the “Payload Rmin (%)” value in series [6] was found to be 40.364%.

For `C/C(=C\c1cc(F)cc(N2CCN(CC(=O)O)CC2)c1)[C@H]1OC(=O)C[C@H](O)CC[C@H](C)[C@@H](OC(=O)N2CCNCC2)/C=C/[C@@H]1C` [D33, 2-(4-(3-fluoro-5-((E)-2-((2S,3S,6R,7S,10R,E)-10-hydroxy-3,7-dimethyl-12-oxo-6-((piperazine-1-carbonyl)oxy)oxacyclododec-4-en-2-yl)prop-1-en-1-yl)phenyl)piperazin-1-yl) acetic acid], the efflux ratio at 2 h, 10 µM in series [8] was 4.08.

Take `COc1cc2cc(c1Cl)N(C)C(=O)C[C@H](OC(=O)[C@H](C)N(C)C(=O)CCS)[C@]1(C)O[C@H]1[C@H](C)[C@@H]1C[C@@](O)(NC(=O)O1)[C@H](OC)/C=C/C=C(\C)C2` [DM1, reference compound]: the “Payload cell lethality: CT..-ATS GMean LD50 (nM) THP1.1” value in series [5] (payload of the ADC) was determined as 3.287 nM.
